Laboratory results published in patent US7452894B2, “Purine derivatives as purinergic receptor antagonists” (Vernalis Research Limited, priority 2001, dated 2008).
Read-outs that look alike come from different tables or passages of the source.

Legend:
[1] = target: human adenosine A2A receptors (Homo sapiens, UniProt P29274); assay: Binding affinities at hA2A receptors, displacement of [3H]-CGS 21680
adenosine A2A receptor = settings: cited from earlier work
[2] = cited from earlier work
[3] = human adenosine A2A receptor, radioligand [3H]-CGS 21680

human adenosine A2A receptors, sequence (P29274 whole entry): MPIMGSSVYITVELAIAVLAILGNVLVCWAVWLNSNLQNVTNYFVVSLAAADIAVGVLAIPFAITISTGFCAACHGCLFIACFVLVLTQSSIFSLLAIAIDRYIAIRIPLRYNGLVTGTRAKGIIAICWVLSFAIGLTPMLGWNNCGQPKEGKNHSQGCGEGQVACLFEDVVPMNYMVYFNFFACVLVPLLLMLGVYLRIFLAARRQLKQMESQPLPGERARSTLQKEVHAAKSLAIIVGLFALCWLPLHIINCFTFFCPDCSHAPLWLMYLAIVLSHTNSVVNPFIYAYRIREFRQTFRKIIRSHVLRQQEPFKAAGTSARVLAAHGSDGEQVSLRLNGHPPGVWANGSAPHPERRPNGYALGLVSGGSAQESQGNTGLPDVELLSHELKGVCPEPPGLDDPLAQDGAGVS

Compound	Ki [1] [nM]	melting point	other results
Cc1csc(-c2nc(N)nc3c2ncn3Cc2ccccc2F)n1 [Example 244, 9-(2-Fluorobenzyl)-6-(4-methyl-2-thiazolyl)-9H-purine-2-amine]	7	259.2 °C	–
CCCn1c(=O)c2c(nc(/C=C/c3ccc(OC)c(OC)c3)n2C)n(CCC)c1=O [KF 17837, (E)-8-(3,4-dimethoxystyryl)-1,3-dipropyl-7-methylxanthine]	–	–	anticataleptic effects of a subthreshold dose of L-DOPA plus benserazide (adenosine A2A receptor; in vivo): potentiated; catalepsy induced by haloperidol and reserpine (adenosine A2A receptor; in vivo): reduced; cataleptic responses induced by intracerebroventricular CGS 21680 (adenosine A2A receptor; oral administration): significantly ameliorated
CSc1nc(-c2ccco2)c2nc[nH]c2n1 [Example 13, 6-(2-Furyl)-2-methylthio-1H-purine]	12	239.5 to 239.9 °C	–
Nc1nc(-c2ccco2)c2ncn(Cc3ccc(Cl)s3)c2n1 [Example 240, 9-(5-Chloro-2-thienylmethyl)-6-(2-furyl)-9H-purine-2-amine]	7	210.9 to 211.5 °C	–
Cc1ccc(Cn2cnc3c(-c4ccc(C)o4)nc(N)nc32)cc1 [Example 208, 9-(4-Methylbenzyl)-6-(5-methyl-2-furyl)-9H-purine2-amine]	6	210 to 220 °C (dec.)	–
Nc1nc(-c2ccco2)c2ncn(C(=O)OCc3ccccc3)c2n1 [Example 106, Benzyl 2-amino-6-(2-furyl)-9H-purine-9-carboxylate]	1	161.7 °C (dec.)	–
Nc1nc(-c2ccco2)c2ncn(C(=O)NCc3ccc(F)cc3)c2n1 [Example 79, 2-Amino-N-(4-fluorobenzyl)-6-(2-furyl)-9H-purine-9-carboxamide]	–	–	Ki [1, 3]: 1 nM
Cn1cnc(S(=O)(=O)Nc2ccccc2Cn2cnc3c(-c4ccco4)nc(N)nc32)c1 [Example 235, 6-(2-Furyl)-9-(2-(1-methyl-1H-imidazol-4-ylsulphonylamino)benzyl)-9H-purine-2-amine]	4	253.1 to 257.1 °C	–
Nc1nc(-c2ccco2)c2ncn(C/C=C/c3ccccc3)c2n1 [Example 57, 6-(2-Furyl)-9-(1-phenyl-1-propene-3-yl)-9H-purine-2-amine]	12	–	–
Nc1nc(-c2ccco2)c2ncn(C(=O)NCc3ccccc3Cl)c2n1 [Example 39, 2-Amino-N-(2-chlorobenzyl)-6-(2-furyl)-9H-purine-9-carboxamide]	–	–	Ki [1, 3]: 1 nM
Nc1nc(-c2ccco2)c2ncn(CC(=O)Nc3cccc(Cl)c3)c2n1 [Example 141, 2-Amino-N-(3-chlorophenyl)-6-(2-furyl)-9H-purine-9-acetamide]	36	278 °C (dec.)	–
Cn1c(=O)c2[nH]cnc2n(C)c1=O [theophylline]	–	–	mean objective disability scores ([2]; 15 Parkinsonian patients, up to 12 weeks, 150 mg/day oral): significant improvements; serum theophylline levels ([2]; slow release oral preparation 150 mg/day, after one week, Parkinsonian patients): 4.44 mg/L
Nc1nc(-c2ccco2)c2ncn(Cc3cccc(Cl)c3)c2n1 [Example 125, 9-(3-Chlorobenzyl)-6-(2-furyl)-9H-purine-2-amine]	6	–	–
Nc1nc(-c2ccco2)c2ncn(CCCc3cccnc3)c2n1 [Example 189, 6-(2-Furyl)-9-(3-(3-pyridyl)propyl)-9H-purine-2-amine]	21	–	–
Cc1cccc(Cn2cnc3c(-c4ccco4)nc(N)nc32)c1 [Example 126, 6-(2-Furyl)-9-(3-methylbenzyl)-9H-purine-2-amine]	7	–	–
CN(Cc1ccccc1)C(=O)n1cnc2c(-c3ccco3)nc(N)nc21 [Example 118, 2-Amino-N-benzyl-6-(2-furyl)-N-methyl-9H-purine-9-carboxamide]	3	–	–
CCCCCNC(=O)n1cnc2c(-c3ccco3)nc(N)nc21 [Example 52, 2-Amino-6-(2-furyl)-N-n-pentyl-9H-purine-9-carboxamide]	5	–	–
Nc1nc(-c2ccco2)c2ncn(Cc3cc([N+](=O)[O-])ccc3F)c2n1 [Example 259, 9-(2-Fluoro-5-nitrobenzyl)-6-(2-furyl)-9H-purine-2-amine]	11	–	–
